Results reported in patent EP3556362A1, “STING INHIBITORS” (ECOLE POLYTECHNIQUE FEDERALE DE LAUSANNE (EPFL), priority 2018, dated 2019).

Key:
TBK1 = target: T1, TBK1 (Homo sapiens, UniProt Q9UHD2); assay: IFN-β luciferase reporter assay in HEK293T cells, TBK1 driven; conditions: 0.31-2.5µM, 16 h (Figure 2)
T1 sequence (Q9UHD2 1-729): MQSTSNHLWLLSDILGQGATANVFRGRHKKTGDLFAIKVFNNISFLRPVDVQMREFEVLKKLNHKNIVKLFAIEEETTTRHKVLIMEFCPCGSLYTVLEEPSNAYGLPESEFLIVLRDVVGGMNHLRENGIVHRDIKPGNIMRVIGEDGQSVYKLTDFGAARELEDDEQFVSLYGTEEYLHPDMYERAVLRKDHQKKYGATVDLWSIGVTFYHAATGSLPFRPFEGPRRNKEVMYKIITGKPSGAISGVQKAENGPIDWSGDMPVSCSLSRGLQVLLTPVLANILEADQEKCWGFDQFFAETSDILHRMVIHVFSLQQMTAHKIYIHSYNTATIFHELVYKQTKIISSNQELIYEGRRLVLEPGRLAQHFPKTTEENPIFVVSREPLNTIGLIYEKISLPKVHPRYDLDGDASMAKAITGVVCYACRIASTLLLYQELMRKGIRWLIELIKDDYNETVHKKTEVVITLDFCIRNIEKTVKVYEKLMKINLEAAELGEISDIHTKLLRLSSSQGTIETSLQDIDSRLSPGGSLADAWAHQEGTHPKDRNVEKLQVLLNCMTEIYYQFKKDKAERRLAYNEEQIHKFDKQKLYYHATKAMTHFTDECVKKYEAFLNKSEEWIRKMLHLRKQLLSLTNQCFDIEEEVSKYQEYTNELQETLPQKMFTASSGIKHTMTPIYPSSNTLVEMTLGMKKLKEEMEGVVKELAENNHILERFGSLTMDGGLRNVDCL

RIG-I = target: T2, RIG-I (Homo sapiens, UniProt O95786); assay: IFN-β luciferase reporter assay in HEK293T cells, RIG-I driven (counter-screen and validation)
T2 sequence (O95786 1-925): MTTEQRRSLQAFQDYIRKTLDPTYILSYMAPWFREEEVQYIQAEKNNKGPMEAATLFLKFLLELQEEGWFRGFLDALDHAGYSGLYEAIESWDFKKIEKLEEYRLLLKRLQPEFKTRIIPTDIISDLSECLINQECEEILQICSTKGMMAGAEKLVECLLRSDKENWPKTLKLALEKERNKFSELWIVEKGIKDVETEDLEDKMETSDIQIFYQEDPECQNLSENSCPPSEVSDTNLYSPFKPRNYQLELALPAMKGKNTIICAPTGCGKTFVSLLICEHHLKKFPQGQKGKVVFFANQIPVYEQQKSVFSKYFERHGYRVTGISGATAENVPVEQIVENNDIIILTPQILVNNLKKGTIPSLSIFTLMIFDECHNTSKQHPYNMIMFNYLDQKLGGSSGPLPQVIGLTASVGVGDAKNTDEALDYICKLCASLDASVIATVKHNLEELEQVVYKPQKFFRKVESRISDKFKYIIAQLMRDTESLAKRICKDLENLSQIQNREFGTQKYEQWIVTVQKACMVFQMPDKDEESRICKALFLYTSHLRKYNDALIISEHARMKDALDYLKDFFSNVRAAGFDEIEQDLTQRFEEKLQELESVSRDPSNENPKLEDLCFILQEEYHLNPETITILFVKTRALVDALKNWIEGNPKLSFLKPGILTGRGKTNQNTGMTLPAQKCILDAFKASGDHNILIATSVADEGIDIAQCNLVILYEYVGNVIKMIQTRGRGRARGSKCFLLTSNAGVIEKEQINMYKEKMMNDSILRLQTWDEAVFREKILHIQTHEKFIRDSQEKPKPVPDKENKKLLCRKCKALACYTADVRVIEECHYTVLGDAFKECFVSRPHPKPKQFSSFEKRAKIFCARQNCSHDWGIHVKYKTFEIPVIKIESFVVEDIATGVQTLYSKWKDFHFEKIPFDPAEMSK

TBK1-mediated type I IFN induction (TBK1): failed to suppress
RIG-I-mediated type I IFN induction (RIG-I; 0.31-2.5µM, 16 h (Figure 2)): failed to suppress
Compound: CCc1ccc(NC(=O)Nc2c[nH]c3ccccc23)cc1 [F2740-0151, 1-(4-ethylphenyl)-3-(1H-indol-3-yl)urea]
RIG-I driven activation of the IFN-β reporter (RIG-I; counter-screen of hits from the primary screen): but not RIG-I-dependent type I IFN induction
